Test results published in paper PMC3001897, “High-Throughput Chemical Screen Identifies a Novel Potent Modulator of Cellular Circadian Rhythms and Reveals CKIα as a Clock Regulatory Kinase” (PLoS Biology, 2010).
pEC50: −log10 of the molar value.

Key:
CKIα = CKIα (Homo sapiens, UniProt P48729); assay: Cell-based PER1 degradation assay (PER1-LUC), CKIα
Method: HEK293T cells (6.0×10^4 cells) were reverse transfected on 96-well white solid-bottom plates by Lipofectamine 2000 with 40 ng each of expression vectors for C-terminally luciferase-fused PER1 (in p3XFLAG-CMV-14) and N-terminally HA-tagged kinase (in p3XFLAG-CMV-14). For luciferase (in p3XFLAG-CMV-14), 2 ng of expression vector with 38 ng of empty vector was used because of its efficient expression. After 48 h, the medium was supplemented with luciferin (final 1 mM) and HEPES-NaOH (pH 7.2; final 10 mM). After 1 h, cycloheximide (final 20 µg/ml) was added to the medium, and the plate was covered with optically clear film. The luminescence was recorded every 10 min by using the Tecan luminometer. Half-life was obtained by using Prism software (GraphPad Software).

[1] = test system: larval per3-luc zebrafish; assay: In vivo luminescence rhythms in per3-luc zebrafish; conditions: up to 9 µM
Method: The per3-luc transgenic line was obtained from Zebrafish International Resource Center. Hemizygote larval fish were entrained in 12 h light/12 h dark cycles from day 3 to 6 postfertilization. They were then placed in an individual well of a 96-well white solid-bottom plate with 180 µl of E3 solution (5 mM NaCl, 0.17 mM KCl, 0.33 mM CaCl2, and 0.33 mM MgSO4, pH 7.0) containing 0.5 mM luciferin, 0.013% Amquel Plus Instant Water Detoxifier (Kordon brand; Novalek, Hayward, California, United States), and various concentrations of longdaysin (final 0.1% DMSO). The plate was covered with optically clear film, and the luminescence was recorded every 36 min by using the Tecan luminometer at 25°C. The period parameter was obtained from the luminescence rhythm by using MultiCycle software.

embryonic fibroblasts = assay: Circadian period in embryonic fibroblasts from CKIδ deficient mPer2Luc knockin mice; format: cell-based, mouse
Method: Luminescence rhythms of adult tail fibroblasts and embryonic fibroblasts from mPer2^Luc knockin mice were analyzed similarly to U2OS cells, except that 1,800 cells were plated per well. Because of the low luminescence intensity of the fibroblasts, the higher sensitivity ViewLux imager was used for rhythm recording.

Chain of CKIα (P48729 whole entry, the tested form may be a part): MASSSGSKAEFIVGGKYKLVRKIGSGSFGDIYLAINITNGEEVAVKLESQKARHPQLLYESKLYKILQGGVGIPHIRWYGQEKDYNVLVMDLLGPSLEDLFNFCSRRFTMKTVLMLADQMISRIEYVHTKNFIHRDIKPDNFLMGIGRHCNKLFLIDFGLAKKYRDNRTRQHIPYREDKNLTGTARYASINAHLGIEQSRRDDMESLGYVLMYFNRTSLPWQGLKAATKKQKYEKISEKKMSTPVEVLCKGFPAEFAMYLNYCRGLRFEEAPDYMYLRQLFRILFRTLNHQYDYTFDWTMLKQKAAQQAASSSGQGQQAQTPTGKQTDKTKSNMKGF

CC(C)n1cnc2c(NCc3cccc(C(F)(F)F)c3)ncnc21 [Longdaysin, 9-isopropyl-N-(3-(trifluoromethyl)benzyl)-9H-purin-6-amine]
pEC50 (CKIα; HEK293T cells, 24 h treatment, from Figure 4E): 5.04
Effect on CKIα-dependent degradation of PER1 (CKIα; HEK293T, 0 to 20 µM, 24 h): inhibited by longdaysin treatment in a dose-dependent manner
Effect on body size ([1]; 1 wk treatment): without affecting body size
Period lengthening in vivo ([1]; per3-luc reporter fish, constant darkness): > 10 h
Effect on circadian period (embryonic fibroblasts; CKIδ deficient (CKIδΔ2/Δ2) cells): lengthened the period in a dose-dependent manner
Effect on circadian period (embryonic fibroblasts; wild type (CKIδ+/+) cells): lengthened the period in a dose-dependent manner
